Patent US6040338A, “N,n-bis(sulfonyl)hydrazines useful as antineoplastic agents” (Yale University, priority 1997, dated 2000)

Key:
[1] = Activation by thiolysis (GSH); format: in vitro ADME
Protocol: (§1) The rates of activation of compounds 10a-h were measured in 1 mM phosphate buffer (pH 7.4, 37° C.) alone, 1 mM phosphate buffer containing 5 mM GSH (pH 7.4, 37° C.), and in 1 mM phosphate buffer containing 5 mM GSH and 17.5 U/ml of GST (pH 7.4, 37° C.) (Table 3).

[2] = system: EMT6 mammary carcinoma cells; assay: Colony-forming assay, EMT6 cells under hypoxic or aerobic conditions; format: cell-based, mouse; conditions: 40 μM, 1 hr exposure
Protocol: (§2) The ability of compounds 10h, 11, 12, and 14 to exert preferential toxicity to hypoxic cells was evaluated using the EMT6 mammary carcinoma by methodology described previously (Rockwell, S., Keyes, S. R., and Sartorelli, A. C. Rad. Res. 116: 100-113 (1988); Keyes, S. R., Rockwell, S., and Sartorelli, A. C. Cancer Res. 45: 213-216 (1985)). Briefly, exponentially growing monolayers of EMT6 (or CHO-K1/dhfr clone) were exposed to a continuously flowing 95% N2 /5% CO2 humidified atmosphere for 2 h to produce radiobiologic hypoxia. Parallel flasks were maintained similarly in humidified 95% air/5% CO2. Without breaking the hypoxia, cells were exposed to various concentrations of the test agent for 1 hr. Cell survival was then measured by colony formation.
The cytotoxicity of compound 10h was evaluated against EMT6 mouse mammary carcinoma cells in vitro under aerobic and hypoxic conditions using the colony-forming assay described above. FIG. 1 depicts the survival of EMT6 cells exposed to various concentrations of compound 10h for 1 hr under hypoxic or aerobic conditions in vitro. Points are the geometric means of two or more independent determinations of surviving fractions. The SEMs are shown where n≥3 and where the error is larger than the point size. Open triangles represent aerobic data points and filled triangles represent hypoxic data points.
Compound 12 was evaluated for its ability to exert preferential toxicity to hypoxic EMT6 cells relative to their aerobic counterparts. […] Points are geometric means of two or more independent determinations of surviving fractions. The SEMs are shown where n≥3 and where the error is larger than the point size. Open triangles are aerobic data points, and filled triangles are hypoxic data points. […] Points are means of duplicate determinations. Open triangles are parental-aerobic; filled triangles are parental-hypoxic; open circles are NADPH:cytochrome P450 reductase-transfected-aerobic; filled circles are NADPH:cytochrome P450 reductase-transfected-hypoxic.

L1210 leukemia = assay: Survival time and body weight of mice bearing the L1210 leukemia; format: in vivo, mice (CD2 F1); conditions: Table 4; i.p. once daily for 6 days at optimum daily dose (10a 60, 10b 25, 10c 12.5, 10d-h 30 mg/kg)
Protocol: The ascites cell form of leukemia L1210 was obtained from the Frederick Cancer Research Facility, Division of Cancer Treatment Tumor Repository of the National Cancer Institute, and was maintained by serial passage in tissue culture. Every 8 weeks, tumor cells were injected intraperitoneally into 5 donor CD2 F1 mice 8-10 weeks of age and were allowed to grow for 7 days. The peritoneal fluid was withdrawn, and the suspension was centrifuged for 5 min at 1600×g. The supernatant was decanted, and 10^5 cells/ml were seeded into 10 ml of RPMI 1640 medium supplemented with 10% fetal bovine serum and 1% L-glutamine (200 mM) and once again maintained in culture. To assay for antitumor activity, 0.1 ml of the cell suspension containing 10^5 leukemia cells was injected into each recipient mouse. […] Each drug was administered intraperitoneally as a solution in 100% dimethyl sulfoxide, in a volume not exceeding 25 μl. […] Mice were weighed during the course of the experiments, and the percentage change in body weight from onset to termination of therapy was used as an indication of drug toxicity. Determination of the sensitivity of neoplasms to these agents was based upon the prolongation of survival time afforded by the drug treatments.
The antitumor activity of compounds 10a-h and 16 were assessed in mice bearing the L1210 leukemia. The results of these tests are summarized in Tables 4 and 5 which show the effects of 2-alkoxycarbonyl- and 2-aryloxycarbonyl-1,2-bis(methylsulfonyl)-1-(2-chloroethyl)hydrazines on the survival time of mice bearing the L1210 leukemia.
In Table 4, the optimum daily dose was administered once per day for six consecutive days, beginning 24 hours after tumor implantation, with 5-10 mice being used per group. In Table 5, multiple dosages of compound 16 are indicated. "Av Δ wt" refers to the average percent change in body weight from onset to termination of therapy. "% T/C" refers to the average survival time of treated/control mice×100. Cures (60-day survivors) are listed separately and are not included in this calculation.

CHO-K1/dhfr^- cells = assay: Colony-forming assay, aerobic and hypoxic CHO-K1/dhfr^- cells; format: cell-based, Chinese hamster; conditions: FIGS. 3 and 4
Protocol: as §2
CHO-K1/dhfr cells were used to examine the role of the reductive enzymes NADPH:cytochrome P450 reductase and DT-diaphorase in the activation of compounds 10h and 12 in situ. Clones of CHO-K1/dhfr^- cells transfected with and overexpressing cDNAs for each of these enzymes were used for this purpose (Belcourt, M. F., Hodnick, W. F., Rockwell, S., and Sartorelli, A. C. Proc. Natl. Acad. Sci. USA 93: 456-460 (1996); Belcourt, M. F., Hodnick, W. F., Rockwell, S., and Sartorelli, A. C. Biochem. Pharmacol. 51: 1669-1678 (1996)).
(§3) The cytotoxicity of compound loh was evaluated in aerobic and hypoxic Chinese hamster ovary (CHO-K1/dhfr^-) cells transfected with and overexpressing cDNAs for NADPH:cytochrome P450 reductase (27-fold more than parental cells, FIG. 3) or DT-diaphorase (133-fold more than parental cells, FIG. 4), two reductases with the potential to activate compound 10h. In FIGS. 3 and 4, points are means of duplicate determinations. […]
(§4) Compound 12 was evaluated for its ability to exert preferential toxicity to hypoxic EMT6 cells relative to their aerobic counterparts. […]

[3] = system: CHO-K1/dhfr^- cells transfected with DT-diaphorase cDNA; assay: Colony-forming assay, CHO-K1/dhfr^- cells overexpressing DT-diaphorase; format: cell-based, Chinese hamster; conditions: 133-fold overexpression versus parental; FIG. 4
Protocol: as §2
CHO-K1/dhfr cells were used to examine the role of the reductive enzymes NADPH:cytochrome P450 reductase and DT-diaphorase in the activation of compounds 10h and 12 in situ. […]
as §3, with “10h.” for “10h. In FIGS. 3 and 4, points are means of duplicate determinations.”

[4] = system: CHO-K1/dhfr^- cells transfected with NADPH:cytochrome P450 reductase cDNA; assay: Colony-forming assay, CHO-K1/dhfr^- cells overexpressing NADPH:cytochrome P450 reductase; format: cell-based, Chinese hamster; conditions: 27-fold overexpression versus parental; FIG. 3
Protocol: as §2, with “formation. […]” for “formation.”
as §3, with “10h.” for “10h. In FIGS. 3 and 4, points are means of duplicate determinations.”
as §4

[5] = Activation by hydrolysis in phosphate buffer; format: physicochemical
Protocol: as §1

GST = assay: Activation by GST-catalyzed thiolysis; format: in vitro ADME
Protocol: as §1

Structure (SMILES): CS(=O)(=O)N(CCCl)N(C(=O)OCc1ccc([N+](=O)[O-])cc1)S(C)(=O)=O [Compound 10h, 1,2-Bis(methylsulfonyl)-1-(2-chloroethyl)-2-[(4-nitrobenzyloxy)carbonyl]hydrazine]
- Calculated Activation Rate due to Thiolysis (5 mM GSH) ([1]; 1 mM phosphate buffer, 5 mM GSH, pH 7.4, 37° C.): 0.06 nmol/mL/min
- rate of thiolysis with GSH (in words) ([1]; reacted with GSH): extremely slow rate of thiolysis
- toxicity to aerobic EMT6 cells (in words) ([2]; aerobic (FIG. 1)): relatively minor toxicity
- log reduction at 40 µM ([2]; Mus musculus, EMT6, hypoxic (FIG. 1), read-out: kill of hypoxic EMT6 cells): 2
- Av Δ wt (average percent change in body weight from onset to termination of therapy) (L1210 leukemia): -8.6%
- sensitivity of CHO-K1/dhfr^- cells compared with EMT6 cells (in words) (CHO-K1/dhfr^- cells): less sensitive
- sensitivity of hypoxic CHO-K1/dhfr^- cells compared with aerobic counterparts (in words) (CHO-K1/dhfr^- cells; hypoxic versus aerobic): more sensitive
- kill of hypoxic or oxygenated cells on overexpression of DT-diaphorase (in words) [3]: did not result in an increase in the kill of either hypoxic or oxygenated cells
- sensitivity of cells overexpressing NADPH:cytochrome P450 reductase (in words) [4]: Increased sensitivity
- Calculated Activation Rate due to Hydrolysis ([5]; 1 mM phosphate buffer, pH 7.4, 37° C.): not detected
- hydrolysis in phosphate buffer (in words) ([5]; phosphate buffer, physiological pH): little or no hydrolysis
- Calculated Activation Rate due to Catalyzed Thiolysis (5 mM GSH + 17.5 U/ml GST) (GST; 1 mM phosphate buffer, 5 mM GSH, 17.5 U/ml GST, pH 7.4, 37° C.): 20.5 nmol/mL/min
- rate of activation when thiolysis is catalyzed by GST (in words) (GST; GSH + GST): relatively high rate of activation
